Tests used:
vasopressin V1a receptor = molecular target: T1, vasopressin V1a receptor (Homo sapiens, UniProt P37288); experiment: Inhibition of phosphatidylinositol turnover; type: cell-based; conditions: hV1a cells; for agonist or antagonist character: vasopressin-mediated turnover of phosphatidylinositol
T1 construct: host or cells: CHO cells (hV1a cell line), whole adherent cells
Description: Inhibition of phosphatidylinositol turnover. The physiological effects of vasopressin are mediated through specific G-protein coupled receptors. The vasopressin V1a receptor is coupled to the Gq/G11 family of G proteins and mediates phosphatidylinositol turnover. The agonist or antagonist character of the compounds of the invention may be determined by their ability to inhibit vasopressin-mediated turnover of phosphatidylinositol by the procedure described in the following paragraphs.
Cell culture and labeling of cells. Three days prior to the assay, near-confluent cultures of hV1a cells were dissociated and seeded in 6-well tissue culture plates, about 100 wells being seeded from each 75 cm^2 flask (equivalent to 12:1 split ratio).
Incubations. All assays were in triplicate except for basal and 10 nM AVP (both n=6). AVP ((arginine vasopressin), Peninsula Labs, Belmont, Calif., USA (#8103)) was dissolved in 0.1N acetic acid. Test agents were dissolved in DMSO and diluted in DMSO to 200 times the final test concentration. […] The order of incubations was randomized. Incubations were initiated by removing the prelabeling medium, washing the monolayer once with 1 mL of 0.9% NaCl, and transferring the contents of the assay tubes to corresponding wells. The plates were incubated for 1 hour at 37° C. Incubations were terminated by removing the incubation medium and adding 500 μL of ice cold 5% (w/v) trichloroacetic acid and allowing the wells to stand for 15 min.
Measurement of [^3H]inositol phosphates. BioRad Poly-Prep Econo-Columns were packed with 0.3 mL of AG 1 X-8 100-200 formate form resin. Resin was mixed 1:1 with water and 0.6 mL added to each column. Columns were then washed with 10 mL water. Scintillation vials (20 mL) were placed under each column. For each well, the contents were transferred to a minicolumn, after which the well was washed with 0.5 mL distilled water, which was also added to the minicolumn. The columns were then washed twice with 5 mL of 5 mM myo-inositol to elute free inositol. Aliquots (1 mL) were transferred to 20 mL scintillation vials and 10 mL of Beckman Ready Protein Plus added. After the myo-inositol wash was complete, empty scintillation vials were placed under the columns, and [^3H]inositol phosphates were eluted with three additions of 1 mL 0.5 M ammonium formate containing 0.1 N formic acid. Elution conditions were optimized to recover inositol mono-, bis-, and trisphosphates, without eluting the more metabolically inert tetrakis-, pentakis-, and hexakis-phosphates. To each sample was added 10 mL of a high salt capacity scintillation fluid such as Tru-Count High Salt Capacity or Packard Hionic-Fluor. Inositol lipids were measured by adding 1 mL of 2% sodium dodecyl sulfate (SDS) to each well, allowing the wells to stand for at least 30 min., and transferring the solution to 20 mL scintillation vials, to which 10 mL Beckman Ready Protein Plus scintillation fluid was then added. Samples were counted in a Beckman LS 3801 liquid scintillation counter for 10 min. Total inositol incorporation for each well was calculated as the sum of free inositol, inositol phosphates, and inositol lipids.
Data analysis: concentration-inhibition experiments. Concentration-response curves for AVP and concentration-inhibition curves for test agents versus 10 nM AVP were analyzed by nonlinear least-squares curve-fitting to a 4-parameter logistic function. Parameters for basal and maximal inositol phosphates, EC50 or IC50, and Hill coefficient were varied to achieve the best fit. The curve-fitting was weighted under the assumption that the standard deviation was proportional to dpm of radioactivity. Full concentration-response curves for AVP were run in each experiment, and IC50 values were converted to Ki values by application of the Cheng-Prusoff equation, based on the EC50 for AVP in the same experiment. Inositol phosphates were expressed as dpm per 10^6 dpm of total inositol incorporation.

V1a [1] = molecular target: T2, V1a (Homo sapiens, UniProt P37288); experiment: Human vasopression V1a receptor binding assay; parameters: host or cells: CHO cells (hV1a cell line), whole adherent cells; conditions: for Ki / IC50: hV1a cell line (CHO); for Ki: Table 18; for IC50: 1 nM 3H-AVP, Table 17, read-out: V1a Binding Affinity (IC50 (nM))
Procedure, shortened: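 Whole CHO cells stably expressing human V1a receptor competed 1 nM 3H-AVP against 10-fold serial compound dilutions (DMSO) in pH 7.0 Hepes/BSA/DMEM buffer, 45 min at 37° C.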

[2] = test system: panel of 63 other receptors; experiment: Comparative binding to other receptors showing selectivity (NOVASCREEN); conditions: 100 nM
Description: Comparative binding to other receptors showing selectivity.

[3] = test system: AVP-induced rise in blood pressure; experiment: Blood pressure pharmacology rats; type: in vivo
Description: Blood pressure pharmacology rats. […] Prior to menses, blood vessels in the uterine wall become engorged with blood. Vasopressin, acting through V1a receptors, causes constriction of both uterine and vascular smooth muscle contributing to the discomfort and pain of primary dysmenorrhea. Vasopressin is one of the endogenous factors that maintains vascular tone. Blocking the V1a receptors localized to smooth muscle may ameliorate the symptoms of primary dysmenorrhea. Elevated concentrations of vasopressin, acting through V1a receptors causes constriction of both uterine and vascular smooth muscle contributing to the discomfort and pain of primary dysmenorrhea. There are no animal models for evaluating receptor antagonists on dysmenorrhea. […]
Male rats were divided into five groups, and each group was tested with placebo, or one of four doses of one or more of the compounds described herein, such as with Example 225 at 0.16, 0.4, 1.0, and 2.5 mg/kg. Rats were treated orally with the compound and effects on blood pressure were measured 90-150 min later as follows. Under isoflurane anesthesia blood pressure was recorded through a cannula in the femoral artery. To increase systemic blood pressure AVP was administered (25 ng/kg) through a cannula in the femoral vein; the change in mean blood pressure was recorded two minutes following injection of AVP.

V1a [4] = molecular target: T2, V1a; parameters: host or cells: human subjects (in vivo); conditions: oral, subjects 18-35 years; cited from earlier work

T2 sequence (P37288 whole entry): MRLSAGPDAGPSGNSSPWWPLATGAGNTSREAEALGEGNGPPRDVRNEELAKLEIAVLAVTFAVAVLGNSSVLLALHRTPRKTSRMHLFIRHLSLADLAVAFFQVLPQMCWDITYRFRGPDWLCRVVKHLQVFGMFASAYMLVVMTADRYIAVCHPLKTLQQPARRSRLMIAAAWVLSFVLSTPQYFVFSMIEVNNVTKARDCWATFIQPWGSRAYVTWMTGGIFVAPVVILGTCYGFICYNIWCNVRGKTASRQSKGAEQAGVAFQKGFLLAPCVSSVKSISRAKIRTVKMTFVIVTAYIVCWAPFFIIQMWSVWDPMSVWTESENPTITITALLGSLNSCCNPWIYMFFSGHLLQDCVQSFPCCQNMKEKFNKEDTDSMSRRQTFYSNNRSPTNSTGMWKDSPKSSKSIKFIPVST
T1 sequence (P37288 whole entry): as above

SMILES | agonist or antagonist character (vasopressin V1a receptor) | Ki (V1a [1]) [nM] | IC50 (V1a [1]) [nM] | other results
O=C(NCc1cccc(C(F)(F)F)c1)[C@@H](CC(=O)N1CCC(N2CCCCC2)CC1)N1C(=O)[C@@H](N2C(=O)OC[C@@H]2c2ccccc2)[C@H]1/C=C/c1ccccc1 [Example 133] | vasopressin V1a antagonists | 1.49 | – | –
O=C(NCc1cccc(C(F)(F)F)c1)[C@H](CCC(=O)N1CCC(N2CCCCC2)CC1)N1C(=O)[C@@H](N2C(=O)OC[C@@H]2c2ccccc2)[C@H]1/C=C/c1ccccc1 [Example 88] | vasopressin V1a antagonists | 1.45 | 2.4 | –
O=C(NCc1cccc(C(F)(F)F)c1)C(CCC(=O)N1CCN(C2CCCCC2)CC1)N1C(=O)C(N2C(=O)OCC2c2ccccc2)C1C=Cc1ccccc1 (single isomer, unassigned) [Example 110] | vasopressin V1a antagonists | 0.27 | – | –
CN(Cc1cccc(C(F)(F)F)c1)C(=O)[C@@H](CC(=O)N1CCC(N2CCCCC2)CC1)N1C(=O)[C@@H](N2C(=O)OC[C@@H]2c2ccccc2)[C@H]1/C=C/c1ccccc1 [Example 225, 2(R)-[[4-(Piperidinyl)piperidinyl]carbonylmethyl]-2-[3(S)-(4(S)-phenyloxazolidin-2-on-3-yl)-4(R)-(2-styryl)azetidin-2-on-1-yl]acetic acid N-methyl-N-(3-trifluoromethylbenzyl)amide] | – | – | 1.08 | selective binding against panel of 63 other receptors [2]: bound only to the V1a vasopressin receptor; Ki (vasopressin V1a receptor; from IC50 by Cheng-Prusoff equation, read-out: Ki, suppression of the action of AVP): 0.05 nM; suppression of the action of AVP (vasopressin V1a receptor; inositol phosphates): dose-dependent suppression of the action of AVP; IC50 (vasopressin V1a receptor; versus 10 nM AVP, inositol phosphates, read-out: IC50, suppression of the action of AVP): 2.68 nM; binding curve against [3H]-AVP (V1a [1]; hV1a cell line, 10 fold dilutions of test compound): dose-dependent competitive binding curve; inhibition of the AVP-induced rise in blood pressure ([3]; male rats, oral 0.16, 0.4, 1.0, 2.5 mg/kg, 90-150 min before AVP 25 ng/kg): dose-dependent inhibition of the AVP-induced rise in blood pressure; reduction in blood pressure as compared to vehicle and the two lower doses ([3]; rats, oral 1 and 2.5 mg/kg): significant (p<0.01) reduction in blood pressure
O=C(NCc1cccc(C(F)(F)F)c1)C(CCC(=O)N1CCN(CCc2ccccc2)CC1)N1C(=O)C(N2C(=O)OCC2c2ccccc2)C1C=Cc1ccccc1 (single isomer, unassigned) [Example 35] | vasopressin V1a antagonists | 1.17 | – | –
COc1ccc(S(=O)(=O)N2c3ccc(Cl)cc3[C@](O)(c3ccccc3Cl)[C@@H]2C(=O)N2CCC[C@H]2C(N)=O)cc1OC [SR49059] | – | – | – | reduction in pain across three menstrual cycles (V1a [4]): significant reduction in pain
O=C(NCc1cccc(C(F)(F)F)c1)[C@H](CCC(=O)N1CCN(Cc2ccccc2)CC1)N1C(=O)[C@@H](N2C(=O)OC[C@@H]2c2ccccc2)[C@H]1/C=C/c1ccccc1 [Example 95] | – | 1.08 | – | –
O=C(NCc1cccc(C(F)(F)F)c1)[C@H](CC(=O)N1CCC(N2CCCCC2)CC1)N1C(=O)[C@@H](N2C(=O)OC[C@@H]2c2ccccc2)[C@H]1/C=C/c1ccccc1 [Example 44] | vasopressin V1a antagonists | 1.89 | – | –
COc1ccc(OC)c(CNC(=O)[C@H](CCC(=O)N2CCN(C3CCCCC3)CC2)N2C(=O)[C@@H](N3C(=O)OC[C@@H]3c3ccccc3)[C@H]2/C=C/c2ccccc2)c1 [Example 219] | – | 0.39 | 0.63 | –

Now from value to compound, other results behind:

agonist or antagonist character (vasopressin V1a receptor) | Ki (V1a [1]) [nM] | IC50 (V1a [1]) [nM] | SMILES | other results
– | 2.7 | – | O=C(NC1(c2cccc(F)c2)CCCC1)[C@H](CCC(=O)N1CCN(C2CCCCC2)CC1)N1C(=O)[C@@H](N2C(=O)OC[C@@H]2c2ccccc2)[C@H]1/C=C/c1ccccc1 [Example 221AM] | –
– | 3.7 | 6 | O=C(NCc1cccc(C(F)(F)F)c1)[C@@H](CC(=O)N1CCC(CN2CCCCC2)CC1)N1C(=O)[C@@H](N2C(=O)OC[C@@H]2c2ccccc2)[C@H]1/C=C/c1ccccc1 [Example 134G] | –
